From patent publication US11498899B2, “Nitrone herbicides” (FMC Corporation, priority 2016, dated 2022)

Key:
rice (Oryza sativa) = assay: Test B flooded paddy test, visual rating 0-100 (0 no effect, 100 complete control); conditions: Flood, 250 g ai/ha, applied to paddy water, rated after 13 to 15 days
[1] = tested on: foxtail, green (green foxtail, Setaria viridis); assay: Test A postemergence, visual injury rating 0-100; format: in vivo; conditions: 0 to 100 scale
[2] = tested on: wheat (Triticum aestivum); assay: Test A postemergence, visual injury rating 0-100; format: in vivo; conditions: 0 to 100 scale
[3] = tested on: barnyardgrass (Echinochloa crus-galli); assay: Test A postemergence, visual injury rating 0-100; format: in vivo; conditions: 0 to 100 scale
[4] = tested on: ragweed (common ragweed, Ambrosia elatior); assay: Test A postemergence, visual injury rating 0-100; format: in vivo; conditions: 0 to 100 scale
corn (Zea mays) = assay: Test A postemergence, visual injury rating 0-100; format: in vivo; conditions: 0 to 100 scale
kochia (Kochia scoparia) [5] = assay: Test A postemergence, visual injury rating 0-100; format: in vivo; conditions: 0 to 100 scale
[6] = tested on: pigweed (Amaranthus retroflexus); assay: Test A postemergence, visual injury rating 0-100; format: in vivo; conditions: 0 to 100 scale
[7] = tested on: blackgrass (Alopecurus myosuroides); assay: Test A postemergence, visual injury rating 0-100; format: in vivo; conditions: 0 to 100 scale
[8] = tested on: ryegrass, Italian (Italian ryegrass, Lolium multiflorum); assay: Test A postemergence, visual injury rating 0-100; format: in vivo; conditions: 0 to 100 scale
[9] = tested on: ducksalad (Heteranthera limosa); assay: Test B flooded paddy test, visual rating 0-100; conditions: Flood, 250 g ai/ha, applied to paddy water, rated after 13 to 15 days
[10] = tested on: barnyardgrass (Echinochloa crus-galli); assay: Test A preemergence, visual injury rating 0-100 (0 no effect, 100 complete control); format: in vivo; conditions: for Barnyardgrass plant response rating (0 to 100 scale): 125 g ai/ha; for Barnyardgrass plant response rating: 500 g ai/ha, 0 to 100 scale
[11] = tested on: barnyardgrass (Echinochloa crus-galli); assay: Test B flooded paddy test, visual rating 0-100; conditions: Flood, 250 g ai/ha, applied to paddy water, rated after 13 to 15 days
[12] = tested on: foxtail, green (green foxtail, Setaria viridis); assay: Test A preemergence, visual injury rating 0-100; format: in vivo
[13] = tested on: ragweed (common ragweed, Ambrosia elatior); assay: Test A preemergence, visual injury rating 0-100; format: in vivo
kochia (Kochia scoparia) [14] = assay: Test A preemergence, visual injury rating 0-100; format: in vivo
[15] = tested on: pigweed (Amaranthus retroflexus); assay: Test A preemergence, visual injury rating 0-100; format: in vivo
[16] = tested on: ryegrass, Italian (Italian ryegrass, Lolium multiflorum); assay: Test A preemergence, visual injury rating 0-100; format: in vivo

CC1=[N+]([O-])C(C(=O)Nc2ccccc2[S+](C)[O-])C(c2ccc(C(F)(F)F)cc2)C1 (racemic) [Compound 44]
Rice plant response rating (0 to 100 scale) (rice (Oryza sativa)): 0
Foxtail, Green plant response rating ([1]; 125 g ai/ha): 0
Foxtail, Green plant response rating ([1]; 500 g ai/ha): 30
Wheat plant response rating ([2]; 125 g ai/ha): 0
Wheat plant response rating ([2]; 500 g ai/ha): 0
Barnyardgrass plant response rating ([3]; 125 g ai/ha): 0
Barnyardgrass plant response rating ([3]; 500 g ai/ha): 0
Ragweed plant response rating ([4]; 125 g ai/ha): 0
Ragweed plant response rating ([4]; 500 g ai/ha): 0
Corn plant response rating (corn (Zea mays); 125 g ai/ha): 0
Corn plant response rating (corn (Zea mays); 500 g ai/ha): 0
Kochia plant response rating (kochia (Kochia scoparia) [5]; 125 g ai/ha): 0
Kochia plant response rating (kochia (Kochia scoparia) [5]; 500 g ai/ha): 10
Pigweed plant response rating ([6]; 125 g ai/ha): 0
Pigweed plant response rating ([6]; 500 g ai/ha): 20
Blackgrass plant response rating ([7]; 125 g ai/ha): 0
Blackgrass plant response rating ([7]; 500 g ai/ha): 20
Ryegrass, Italian plant response rating ([8]; 125 g ai/ha): 0
Ryegrass, Italian plant response rating ([8]; 500 g ai/ha): 0
Ducksalad plant response rating (0 to 100 scale) [9]: 0
Barnyardgrass plant response rating (0 to 100 scale) [10]: 0
Barnyardgrass plant response rating [10]: 70
Barnyardgrass plant response rating (0 to 100 scale) [11]: 0
Foxtail, Green plant response rating (0 to 100 scale) ([12]; 125 g ai/ha): 0
Foxtail, Green plant response rating (0 to 100 scale) ([12]; 500 g ai/ha): 100
Ragweed plant response rating (0 to 100 scale) ([13]; 125 g ai/ha): 0
Ragweed plant response rating (0 to 100 scale) ([13]; 500 g ai/ha): 80
Kochia plant response rating (0 to 100 scale) (kochia (Kochia scoparia) [14]; 125 g ai/ha): 0
Kochia plant response rating (0 to 100 scale) (kochia (Kochia scoparia) [14]; 500 g ai/ha): 0
Pigweed plant response rating (0 to 100 scale) ([15]; 125 g ai/ha): 20
Pigweed plant response rating (0 to 100 scale) ([15]; 500 g ai/ha): 90
Ryegrass, Italian plant response rating (0 to 100 scale) ([16]; 125 g ai/ha): 0
Ryegrass, Italian plant response rating (0 to 100 scale) ([16]; 500 g ai/ha): 0

CC1=[N+]([O-])C(C(=O)Nc2ccc(F)cc2F)C(c2ccc(C(F)(F)F)cc2)C1 (racemic) [Compound 46]
Rice plant response rating (0 to 100 scale) (rice (Oryza sativa)): 20
Foxtail, Green plant response rating ([1]; 125 g ai/ha): 40
Foxtail, Green plant response rating ([1]; 500 g ai/ha): 90
Wheat plant response rating ([2]; 125 g ai/ha): 0
Wheat plant response rating ([2]; 500 g ai/ha): 20
Barnyardgrass plant response rating ([3]; 125 g ai/ha): 10
Barnyardgrass plant response rating ([3]; 500 g ai/ha): 90
Ragweed plant response rating ([4]; 125 g ai/ha): 0
Ragweed plant response rating ([4]; 500 g ai/ha): 30
Corn plant response rating (corn (Zea mays); 125 g ai/ha): 0
Corn plant response rating (corn (Zea mays); 500 g ai/ha): 40
Kochia plant response rating (kochia (Kochia scoparia) [5]; 125 g ai/ha): 0
Kochia plant response rating (kochia (Kochia scoparia) [5]; 500 g ai/ha): 40
Pigweed plant response rating ([6]; 125 g ai/ha): 0
Pigweed plant response rating ([6]; 500 g ai/ha): 30
Blackgrass plant response rating ([7]; 125 g ai/ha): 20
Blackgrass plant response rating ([7]; 500 g ai/ha): 70
Ryegrass, Italian plant response rating ([8]; 125 g ai/ha): 0
Ryegrass, Italian plant response rating ([8]; 500 g ai/ha): 40
Ducksalad plant response rating (0 to 100 scale) [9]: 100
Barnyardgrass plant response rating (0 to 100 scale) [10]: 70
Barnyardgrass plant response rating [10]: 100
Barnyardgrass plant response rating (0 to 100 scale) [11]: 40
Foxtail, Green plant response rating (0 to 100 scale) ([12]; 125 g ai/ha): 90
Foxtail, Green plant response rating (0 to 100 scale) ([12]; 500 g ai/ha): 100
Ragweed plant response rating (0 to 100 scale) ([13]; 125 g ai/ha): 0
Ragweed plant response rating (0 to 100 scale) ([13]; 500 g ai/ha): 90
Kochia plant response rating (0 to 100 scale) (kochia (Kochia scoparia) [14]; 125 g ai/ha): 0
Kochia plant response rating (0 to 100 scale) (kochia (Kochia scoparia) [14]; 500 g ai/ha): 90
Pigweed plant response rating (0 to 100 scale) ([15]; 125 g ai/ha): 50
Pigweed plant response rating (0 to 100 scale) ([15]; 500 g ai/ha): 90
Ryegrass, Italian plant response rating (0 to 100 scale) ([16]; 125 g ai/ha): 0
Ryegrass, Italian plant response rating (0 to 100 scale) ([16]; 500 g ai/ha): 0

CC1=[N+]([O-])[C@H](C(=O)Nc2cccc(F)c2F)[C@@H](c2ccc3c(c2)OC(F)(F)O3)C1 (relative stereo) [Compound 25, rel-(2S,3R)-3-(2,2-Difluoro-1,3-benzodioxol-5-yl)-N-(2,3-difluorophenyl)-3,4-dihydro-5-methyl-2H-pyrrole-2-carboxamide 1-oxide]
Rice plant response rating (0 to 100 scale) (rice (Oryza sativa)): 0
Foxtail, Green plant response rating ([1]; 125 g ai/ha): 40
Foxtail, Green plant response rating ([1]; 500 g ai/ha): 90
Wheat plant response rating ([2]; 125 g ai/ha): 70
Wheat plant response rating ([2]; 500 g ai/ha): 90
Barnyardgrass plant response rating ([3]; 125 g ai/ha): 70
Barnyardgrass plant response rating ([3]; 500 g ai/ha): 90
Ragweed plant response rating ([4]; 125 g ai/ha): 40
Ragweed plant response rating ([4]; 500 g ai/ha): 50
Corn plant response rating (corn (Zea mays); 125 g ai/ha): 60
Corn plant response rating (corn (Zea mays); 500 g ai/ha): 80
Kochia plant response rating (kochia (Kochia scoparia) [5]; 125 g ai/ha): 60
Kochia plant response rating (kochia (Kochia scoparia) [5]; 500 g ai/ha): 60
Pigweed plant response rating ([6]; 125 g ai/ha): 60
Pigweed plant response rating ([6]; 500 g ai/ha): 70
Blackgrass plant response rating ([7]; 125 g ai/ha): 20
Blackgrass plant response rating ([7]; 500 g ai/ha): 40
Ryegrass, Italian plant response rating ([8]; 125 g ai/ha): 40
Ryegrass, Italian plant response rating ([8]; 500 g ai/ha): 50
Ducksalad plant response rating (0 to 100 scale) [9]: 90
Barnyardgrass plant response rating (0 to 100 scale) [10]: 90
Barnyardgrass plant response rating [10]: 90
Barnyardgrass plant response rating (0 to 100 scale) [11]: 75
Foxtail, Green plant response rating (0 to 100 scale) ([12]; 125 g ai/ha): 90
Foxtail, Green plant response rating ([12]; 500 g ai/ha, 0 to 100 scale): 90
Ragweed plant response rating (0 to 100 scale) ([13]; 125 g ai/ha): 50
Ragweed plant response rating ([13]; 500 g ai/ha, 0 to 100 scale): 100
Kochia plant response rating (0 to 100 scale) (kochia (Kochia scoparia) [14]; 125 g ai/ha): 50
Kochia plant response rating (kochia (Kochia scoparia) [14]; 500 g ai/ha, 0 to 100 scale): 80
Pigweed plant response rating (0 to 100 scale) ([15]; 125 g ai/ha): 80
Pigweed plant response rating ([15]; 500 g ai/ha, 0 to 100 scale): 90
Ryegrass, Italian plant response rating (0 to 100 scale) ([16]; 125 g ai/ha): 80
Ryegrass, Italian plant response rating ([16]; 500 g ai/ha, 0 to 100 scale): 50

CC1=[N+]([O-])[C@H](C(=O)Nc2ccc(F)nc2F)[C@@H](c2ccc(C(F)(F)F)cc2)C1 (relative stereo) [Compound 37, rel-(2S,3R)—N-(2,6-Difluoro-3-pyridinyl)-3,4-dihydro-5-methyl-3-[4-(trifluoromethyl)phenyl]-2H-pyrrole-2-carboxamide 1-oxide]
Rice plant response rating (0 to 100 scale) (rice (Oryza sativa)): 0
Foxtail, Green plant response rating ([1]; 125 g ai/ha): 60
Foxtail, Green plant response rating ([1]; 500 g ai/ha): 90
Wheat plant response rating ([2]; 125 g ai/ha): 10
Wheat plant response rating ([2]; 500 g ai/ha): 60
Barnyardgrass plant response rating ([3]; 125 g ai/ha): 40
Barnyardgrass plant response rating ([3]; 500 g ai/ha): 70
Ragweed plant response rating ([4]; 125 g ai/ha): 0
Ragweed plant response rating ([4]; 500 g ai/ha): 60
Corn plant response rating (corn (Zea mays); 125 g ai/ha): 20
Corn plant response rating (corn (Zea mays); 500 g ai/ha): 50
Kochia plant response rating (kochia (Kochia scoparia) [5]; 125 g ai/ha): 10
Kochia plant response rating (kochia (Kochia scoparia) [5]; 500 g ai/ha): 70
Pigweed plant response rating ([6]; 125 g ai/ha): 0
Pigweed plant response rating ([6]; 500 g ai/ha): 70
Blackgrass plant response rating ([7]; 125 g ai/ha): 20
Blackgrass plant response rating ([7]; 500 g ai/ha): 90
Ryegrass, Italian plant response rating ([8]; 125 g ai/ha): 0
Ryegrass, Italian plant response rating ([8]; 500 g ai/ha): 40
Ducksalad plant response rating (0 to 100 scale) [9]: 100
Barnyardgrass plant response rating (0 to 100 scale) [10]: 90
Barnyardgrass plant response rating [10]: 100
Barnyardgrass plant response rating (0 to 100 scale) [11]: 45
Foxtail, Green plant response rating (0 to 100 scale) ([12]; 125 g ai/ha): 90
Foxtail, Green plant response rating (0 to 100 scale) ([12]; 500 g ai/ha): 100
Ragweed plant response rating (0 to 100 scale) ([13]; 125 g ai/ha): 90
Ragweed plant response rating (0 to 100 scale) ([13]; 500 g ai/ha): 100
Kochia plant response rating (0 to 100 scale) (kochia (Kochia scoparia) [14]; 125 g ai/ha): 70
Kochia plant response rating (0 to 100 scale) (kochia (Kochia scoparia) [14]; 500 g ai/ha): 90
Pigweed plant response rating (0 to 100 scale) ([15]; 125 g ai/ha): 80
Pigweed plant response rating (0 to 100 scale) ([15]; 500 g ai/ha): 100
Ryegrass, Italian plant response rating (0 to 100 scale) ([16]; 125 g ai/ha): 0
Ryegrass, Italian plant response rating (0 to 100 scale) ([16]; 500 g ai/ha): 0
